Here are results for 21 molecules from US8148391B2 (Cephalon, Inc., priority 2006, dated 2012).

The target in test [1] is T1, c-Met (cytoplasmic domain) (Homo sapiens, UniProt P08581).
T1 construct: 10 ng/mL c-Met (cytoplasmic domain, Invitrogen Corporation #PV3143); purchased Invitrogen Corporation PV3143
Description: c-Met Kinase Assay (same methods as for ALK, with modifications). The class given is biochemical. The note with it: 1 μM ATP (Km level); read-out: cMet Activity (c-Met Kinase Inhibition, IC50). The method in brief:
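Steps: coat wells with PLC-γ (10 μg/mL, Tris-buffered saline); add 10 ng/mL c-Met cytoplasmic domain to initiate; incubate 15 min, 37° C; detect phosphoproduct via Eu-N1 PT66 antibody.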

In test [2] the target is T2, baculovirus-expressed ALK (Homo sapiens, UniProt Q9UM73).
T2 construct: host or cells: baculovirus expression system
Description: ALK Kinase Assay (ELISA-type, time-resolved fluorescence). The class given is biochemical. The note with it: 1 μM ATP (Km level); read-out: ALK Activity (ALK Kinase Inhibition, IC50). An outline of the steps:
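Wells were coated with phospholipase C-γ at 10 μg/mL in Tris-buffered saline. Adding 30 ng/ml enzyme started the reaction, which ran at 37° C for 15 minutes before Eu-N1 PT66 antibody detection. Percent inhibition versus log10 concentration gave IC50 by variable-slope fit.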
For orientation: An ELISA detects its analyte on a solid surface through an enzyme-linked reagent.

The structures appear in SMILES notation.

T1 sequence (P08581 956-1390 limits assumed): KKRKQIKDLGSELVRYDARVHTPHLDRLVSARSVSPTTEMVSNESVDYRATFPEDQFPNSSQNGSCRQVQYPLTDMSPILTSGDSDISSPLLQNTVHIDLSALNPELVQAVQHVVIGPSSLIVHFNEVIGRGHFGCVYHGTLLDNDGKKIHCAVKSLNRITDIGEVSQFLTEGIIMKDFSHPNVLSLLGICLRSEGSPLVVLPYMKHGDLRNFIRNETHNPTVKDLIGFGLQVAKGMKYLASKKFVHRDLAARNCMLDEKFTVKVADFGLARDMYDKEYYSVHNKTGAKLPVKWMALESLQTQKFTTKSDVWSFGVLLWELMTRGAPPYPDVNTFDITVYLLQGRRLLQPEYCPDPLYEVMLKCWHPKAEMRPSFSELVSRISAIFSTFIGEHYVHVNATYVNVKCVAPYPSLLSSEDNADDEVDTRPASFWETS
T2 sequence (Q9UM73 19-1620): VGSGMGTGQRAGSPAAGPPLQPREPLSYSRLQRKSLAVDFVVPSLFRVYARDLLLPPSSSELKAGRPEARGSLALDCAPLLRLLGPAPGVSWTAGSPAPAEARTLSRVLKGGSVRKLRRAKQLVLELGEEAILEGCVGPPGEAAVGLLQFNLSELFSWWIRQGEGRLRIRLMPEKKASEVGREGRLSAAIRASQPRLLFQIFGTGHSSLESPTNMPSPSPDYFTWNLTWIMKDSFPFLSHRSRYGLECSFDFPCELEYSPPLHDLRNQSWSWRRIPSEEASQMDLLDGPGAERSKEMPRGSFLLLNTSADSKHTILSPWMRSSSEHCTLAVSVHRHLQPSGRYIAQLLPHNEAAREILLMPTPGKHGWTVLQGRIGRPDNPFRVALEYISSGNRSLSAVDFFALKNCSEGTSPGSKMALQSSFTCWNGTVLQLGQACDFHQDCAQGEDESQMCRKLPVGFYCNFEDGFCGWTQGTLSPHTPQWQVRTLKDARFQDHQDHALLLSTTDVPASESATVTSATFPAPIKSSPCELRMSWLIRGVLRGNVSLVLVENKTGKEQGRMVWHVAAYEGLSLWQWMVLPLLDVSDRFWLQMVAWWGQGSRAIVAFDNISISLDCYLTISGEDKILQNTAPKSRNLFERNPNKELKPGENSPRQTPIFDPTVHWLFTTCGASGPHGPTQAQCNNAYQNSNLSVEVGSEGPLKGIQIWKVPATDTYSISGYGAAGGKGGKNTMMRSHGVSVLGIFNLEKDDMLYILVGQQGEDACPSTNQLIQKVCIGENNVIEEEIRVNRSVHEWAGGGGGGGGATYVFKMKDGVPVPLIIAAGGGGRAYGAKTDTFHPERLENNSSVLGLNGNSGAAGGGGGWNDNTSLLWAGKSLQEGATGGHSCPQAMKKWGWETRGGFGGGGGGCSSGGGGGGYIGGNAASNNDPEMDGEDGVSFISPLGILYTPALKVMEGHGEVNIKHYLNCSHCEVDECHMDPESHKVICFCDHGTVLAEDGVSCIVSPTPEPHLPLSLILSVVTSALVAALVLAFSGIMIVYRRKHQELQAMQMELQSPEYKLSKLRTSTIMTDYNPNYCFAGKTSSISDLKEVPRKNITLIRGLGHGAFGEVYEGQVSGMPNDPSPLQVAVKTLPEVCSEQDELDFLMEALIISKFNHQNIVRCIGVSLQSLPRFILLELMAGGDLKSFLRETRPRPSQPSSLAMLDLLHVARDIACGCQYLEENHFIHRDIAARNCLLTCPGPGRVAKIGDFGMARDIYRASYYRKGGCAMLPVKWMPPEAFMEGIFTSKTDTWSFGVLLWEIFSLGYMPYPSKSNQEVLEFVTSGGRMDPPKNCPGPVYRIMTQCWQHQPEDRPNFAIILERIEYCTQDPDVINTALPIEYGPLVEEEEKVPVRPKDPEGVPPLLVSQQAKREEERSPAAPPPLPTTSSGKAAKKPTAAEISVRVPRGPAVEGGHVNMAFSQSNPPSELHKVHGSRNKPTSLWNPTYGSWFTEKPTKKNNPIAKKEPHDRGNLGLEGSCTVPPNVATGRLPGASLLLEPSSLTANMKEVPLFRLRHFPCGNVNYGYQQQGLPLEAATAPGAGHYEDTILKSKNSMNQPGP

Regarding `COc1cc2c(cc1Nc1ncc(Cl)c(Nc3ccc(C)cc3S(=O)(=O)N(C)C)n1)CCN(CC(=O)N(C)C)CC2` [Example 830, 2-{7-[5-Chloro-4-(2-dimethylsulfamoyl-4-methyl-phenylamino)-pyrimidin-2-ylamino]-8-methoxy-1,2,4,5-tetrahydro-benzo[d]azepin-3-yl}-N,N-dimethyl-acetamide], the IC50 (commonly the point on the concentration scale where inhibition reaches its midpoint) is over 10000 nM in test [1] and under 100 nM in test [2].

`COc1cc2c(cc1Nc1ncc(Cl)c(Nc3ccc(F)cc3S(=O)(=O)N(C)C)n1)CCN(CC(=O)N(C)C)CC2` [Example 831, 2-{7-[5-Chloro-4-(2-dimethylsulfamoyl-4-fluoro-phenylamino)-pyrimidin-2-ylamino]-8-methoxy-1,2,4,5-tetrahydro-benzo[d]azepin-3-yl}-N,N-dimethyl-acetamide]: the IC50 is over 10000 nM in test [1] and under 100 nM in test [2].

Consider `COc1cc2c(cc1Nc1ncc(Cl)c(Nc3ccc(Cl)cc3S(=O)(=O)N(C)C)n1)CCN(CC(=O)N(C)C)CC2` [Example 832, 2-{7-[5-Chloro-4-(4-chloro-2-dimethylsulfamoyl-phenylamino)-pyrimidin-2-ylamino]-8-methoxy-1,2,4,5-tetrahydro-benzo[d]azepin-3-yl}-N,N-dimethyl-acetamide], for which the values for the IC50 in test [1] and in test [2] were over 10000 nM and under 100 nM, respectively.

Turning to `COc1cc2c(cc1Nc1ncc(Cl)c(Nc3ccc(N(C)C)cc3S(=O)(=O)N(C)C)n1)CCN(CC(=O)N(C)C)CC2` [Example 833, 2-{7-[5-Chloro-4-(4-dimethylamino-2-dimethylsulfamoyl-phenylamino)-pyrimidin-2-ylamino]-8-methoxy-1,2,4,5-tetrahydro-benzo[d]azepin-3-yl}-N,N-dimethyl-acetamide], the IC50 in test [1] is over 10000 nM; in test [2] it was under 100 nM.

Consider `COc1cc2c(cc1Nc1ncc(Cl)c(Nc3ccc(N4CCOCC4)cc3S(=O)(=O)N(C)C)n1)CCN(CC(=O)N(C)C)CC2` [Example 834, 2-{7-[5-Chloro-4-(2-dimethylsulfamoyl-4-morpholin-4-yl-phenylamino)-pyrimidin-2-ylamino]-8-methoxy-1,2,4,5-tetrahydro-benzo[d]azepin-3-yl}-N,N-dimethyl-acetamide], for which the IC50 is over 10000 nM in test [1] and under 100 nM in test [2].

`COc1cc2c(cc1Nc1ncc(Cl)c(Nc3ccc(N4CCN(C5CCN(C)CC5)CC4)cc3OC)n1)CCN(CC(=O)N(C)C)CC2` [Example 835, 2-[7-(5-Chloro-4-{2-methoxy-4-[4-(1-methyl-piperidin-4-yl)-piperazin-1-yl]-phenylamino}-pyrimidin-2-ylamino)-8-methoxy-1,2,4,5-tetrahydro-benzo[d]azepin-3-yl]-N,N-dimethyl-acetamide]: the values for the IC50 in test [1] and in test [2] were over 10000 nM and under 100 nM, respectively.

`COc1cc2c(cc1Nc1ncc(Cl)c(Nc3ccccc3S(=O)(=O)N3CCOCC3)n1)CCN(CC(=O)N(C)C)CC2` [Example 836, 2-(7-{5-Chloro-4-[2-(morpholine-4-sulfonyl)-phenylamino]-pyrimidin-2-ylamino}-8-methoxy-1,2,4,5-tetrahydro-benzo[d]azepin-3-yl)-N,N-dimethyl-acetamide]: the IC50 was over 10000 nM in test [1] and under 100 nM in test [2].

As for `COc1cc2c(cc1Nc1ncc(Cl)c(Nc3ccccc3S(=O)(=O)N3CCN(C)CC3)n1)CCN(CC(=O)N(C)C)CC2` [Example 837, 2-(7-{5-Chloro-4-[2-(4-methyl-piperazine-1-sulfonyl)-phenylamino]-pyrimidin-2-ylamino}-8-methoxy-1,2,4,5-tetrahydro-benzo[d]azepin-3-yl)-N,N-dimethyl-acetamide], the results for the IC50 in test [1] and in test [2] were over 10000 nM and under 100 nM, respectively.

Turning to `COCC(COC)N1CCc2cc(Nc3ncc(Cl)c(Nc4ccc(Cl)cc4S(=O)(=O)N(C)C)n3)c(OC)cc2CC1` [Example 838, 5-Chloro-2-{5-chloro-2-[8-methoxy-3-(2-methoxy-1-methoxymethyl-ethyl)-2,3,4,5-tetrahydro-1H-benzo[d]azepin-7-ylamino]-pyrimidin-4-ylamino}-N,N-dimethyl-benzenesulfonamide], the IC50 is over 10000 nM in test [1] and under 100 nM in test [2].

Consider `COCCN1CCc2cc(Nc3ncc(Cl)c(Nc4ccc(Cl)cc4S(=O)(=O)N(C)C)n3)c(OC)cc2CC1` [Example 839, 5-Chloro-2-{5-chloro-2-[8-methoxy-3-(2-methoxy-ethyl)-2,3,4,5-tetrahydro-1H-benzo[d]azepin-7-ylamino]-pyrimidin-4-ylamino}-N,N-dimethyl-benzenesulfonamide], for which the IC50 in test [1] was over 10000 nM; in test [2] it was under 100 nM.

Take `COc1cc2c(cc1Nc1ncc(Cl)c(Nc3ccc(Cl)cc3S(=O)(=O)N(C)C)n1)CCN(CCO)CC2` [Example 840, 5-Chloro-2-{5-chloro-2-[3-(2-hydroxy-ethyl)-8-methoxy-2,3,4,5-tetrahydro-1H-benzo[d]azepin-7-ylamino]-pyrimidin-4-ylamino}-N,N-dimethyl-benzenesulfonamide]: the results for the IC50 in test [1] and in test [2] were over 10000 nM and under 100 nM, respectively.

Regarding `COc1cc2c(cc1Nc1ncc(Cl)c(Nc3ccc(Cl)cc3S(=O)(=O)N(C)C)n1)CCN(CC(=O)N1CCOCC1)CC2` [Example 841, 5-Chloro-2-{5-chloro-2-[8-methoxy-3-(2-morpholin-4-yl-2-oxo-ethyl)-2,3,4,5-tetrahydro-1H-benzo[d]azepin-7-ylamino]-pyrimidin-4-ylamino}-N,N-dimethyl-benzenesulfonamide], the IC50 in test [1] is over 10000 nM; in test [2], under 100 nM.

`COc1cc2c(cc1Nc1ncc(Cl)c(Nc3ccc(Cl)cc3S(=O)(=O)N(C)C)n1)CCN(CC(=O)N1CCN(C)CC1)CC2` [Example 842, 5-Chloro-2-(5-chloro-2-{8-methoxy-3-[2-(4-methyl-piperazin-1-yl)-2-oxo-ethyl]-2,3,4,5-tetrahydro-1H-benzo[d]azepin-7-ylamino}-pyrimidin-4-ylamino)-N,N-dimethyl-benzenesulfonamide]: the IC50 in test [1] was over 10000 nM; in test [2] it was under 100 nM.

Regarding `COc1cc2c(cc1Nc1ncc(Cl)c(Nc3ccc(C(F)(F)F)cc3S(=O)(=O)N(C)C)n1)CCN(CC(=O)N(C)C)CC2` [Example 843, 2-{7-[5-Chloro-4-(2-dimethylsulfamoyl-4-trifluoromethyl-phenylamino)-pyrimidin-2-ylamino]-8-methoxy-1,2,4,5-tetrahydro-benzo[d]azepin-3-yl}-N,N-dimethyl-acetamide], the IC50 in test [1] is over 10000 nM; in test [2], under 100 nM.

Consider `COCC(COC)N1CCc2cc(Nc3ncc(Cl)c(Nc4ccccc4S(=O)(=O)N4CCCC4)n3)c(OC)cc2CC1` [Example 844, 5-Chloro-N*2*-[8-methoxy-3-(2-methoxy-1-methoxymethyl-ethyl)-2,3,4,5-tetrahydro-1H-benzo[d]azepin-7-yl]-N*4*-[2-(pyrrolidine-1-sulfonyl)-phenyl]-pyrimidine-2,4-diamine], for which the IC50 in test [1] was 1000 to 10000 nM; in test [2], under 100 nM.

Regarding `COc1cc2c(cc1Nc1ncc(Cl)c(Nc3ccccc3S(=O)(=O)N3CC[C@@H](N(C)C)C3)n1)CCN(CC(=O)N(C)C)CC2` [Example 845, 2-(7-{5-Chloro-4-[2-((R)-3-dimethylamino-pyrrolidine-1-sulfonyl)-phenylamino]-pyrimidin-2-ylamino}-8-methoxy-1,2,4,5-tetrahydro-benzo[d]azepin-3-yl)-N,N-dimethyl-acetamide], the IC50 in test [1] is over 10000 nM; in test [2], under 100 nM.

Take `COc1cc2c(cc1Nc1ncc(Cl)c(Nc3ccccc3S(=O)(=O)N3CC[C@H](N(C)C)C3)n1)CCN(CC(=O)N(C)C)CC2` [Example 846, 2-(7-{5-Chloro-4-[2-((S)-3-dimethylamino-pyrrolidine-1-sulfonyl)-phenylamino]-pyrimidin-2-ylamino}-8-methoxy-1,2,4,5-tetrahydro-benzo[d]azepin-3-yl)-N,N-dimethyl-acetamide]: the IC50 in test [1] is over 10000 nM; in test [2] it was under 100 nM.

On to `COc1cc2c(cc1Nc1ncc(Cl)c(NC3(CC(N)=O)CCCCC3)n1)CCN(CC(=O)N(C)C)CC2` [Example 847, 2-{1-[5-Chloro-2-(3-dimethylcarbamoylmethyl-8-methoxy-2,3,4,5-tetrahydro-1H-benzo[d]azepin-7-ylamino)-pyrimidin-4-ylamino]-cyclohexyl}-acetamide], for which the IC50 in test [1] was over 10000 nM; in test [2], 100 to 1000 nM.

For `COCC(COC)N1CCc2cc(Nc3ncc(Cl)c(NC4(CC(N)=O)CCCCC4)n3)c(OC)cc2CC1` [Example 848, 2-(1-{5-Chloro-2-[8-methoxy-3-(2-methoxy-1-methoxymethyl-ethyl)-2,3,4,5-tetrahydro-1H-benzo[d]azepin-7-ylamino]-pyrimidin-4-ylamino}-cyclohexyl)-acetamide], the values for the IC50 in test [1] and in test [2] were over 10000 nM and 100 to 1000 nM, respectively.

For `COc1cc2c(cc1Nc1ncc(Cl)c(NC3(CC(N)=O)CCCCC3)n1)CCN(CCO)CC2` [Example 849, 2-(1-{5-Chloro-2-[3-(2-hydroxy-ethyl)-8-methoxy-2,3,4,5-tetrahydro-1H-benzo[d]azepin-7-ylamino]-pyrimidin-4-ylamino}-cyclohexyl)-acetamide], the IC50 in test [1] was over 10000 nM; in test [2], under 100 nM.

As to `CCN1C(=O)CCC(C)(C)c2ccc(Nc3ncc(Cl)c(Nc4ccc(N(C)C)cc4S(=O)(=O)N(C)C)n3)cc21` [Example 850, 2-[5-Chloro-2-(1-ethyl-5,5-dimethyl-2-oxo-2,3,4,5-tetrahydro-1H-benzo[b]azepin-8-ylamino)-pyrimidin-4-ylamino]-5-dimethylamino-N,N-dimethyl-benzenesulfonamide], the IC50 in test [1] was 100 to 1000 nM; in test [2], under 100 nM.
